This passage reports CC50 results from PMC6792352, “Limited Chemical Structural Diversity Found to Modulate Thyroid Hormone Receptor in the Tox21 Chemical Library” (Environmental Health Perspectives, 2019).

Structures can show the parent of a compound that is named as a salt. Some results are limits rather than exact numbers.

The nature of one series: in vitro. Conditions: rat, gh3-tre-luc cells, AC50 (uM) modified / 1000.
As for `CCCN1CCC[C@@H]2Cc3n[nH]cc3C[C@H]21` [(-)-Quinpirole hydrochloride], the CC50 (usually the concentration that lowers cell viability or growth by half) at 24 h was greater than 50 µM.

Compound `CC1=CC[C@@]23C[C@@H]1C(C)(C)[C@@H]2CC[C@H]3C` [(-)-alpha-Cedrene] gave a CC50 at 24 h greater than 90 µM.

In turn, `CC1=CC[C@H]2C[C@@H]1C2(C)C` [(-)-alpha-Pinene] yielded a CC50 at 24 h greater than 90 µM.

`C=C(C)C(=O)OCCOC1CC2CC1C1C=CCC21` (stereo not shown) [(Dicyclopentadienyloxy)ethyl methacrylate] showed a CC50 at 24 h greater than 100 µM.

Compound `BrC/C=C/CBr` [(E)-1,4-Dibromo-2-butene] gave a CC50 at 24 h greater than 20 µM.

Consider `CCC/C=C/CO` [(E)-2-Hexen-1-ol], for which the CC50 at 24 h is greater than 90 µM.

Compound `CCCCCC/C=C/C=O` [(E)-2-Nonenal] showed a CC50 at 24 h greater than 90 µM.

Turning to `CC/C=C/CCO` [(E)-3-Hexen-1-ol], the CC50 at 24 h was greater than 90 µM.

For the compound `CCCCCCCC/C=C/CCCOC(C)=O` [(E)-4-Tridecen-l-yl acetate], the CC50 at 24 h is greater than 90 µM.

For the compound `NC/C=C/C(=O)O` [(E)-4-amino-2-butenoic acid], the CC50 at 24 h was greater than 50 µM.

`CCCC/C=C/CCCCO` [(E)-5-Decen-1-ol] came in with a CC50 at 24 h greater than 90 µM.

As for `CC/C=C/CCCCCCCCCCOC(C)=O` [(E)-11-Tetradecen-1-ol acetate], the CC50 at 24 h is greater than 90 µM.

`CCCCCC/C=C/CCCCCCCC(=O)O` [(E)-Hexadec-9-enoic acid] displayed a CC50 at 24 h greater than 90 µM.

In the case of `CCN(Cc1ccc(Cl)nc1)/C(=C/[N+](=O)[O-])NC` [(E)-Nitenpyram], the CC50 at 24 h was greater than 50 µM.

`CC(C)=CCC/C(C)=C/CC/C(C)=C/CC/C=C(\C)CC/C=C(\C)CCC=C(C)C` [(E)-Squalene] registered a CC50 at 24 h greater than 50 µM.

The compound `O=[N+]([O-])/C=C/c1ccccc1` [(E)-beta-Nitrostyrene] showed a cytotoxic concentration (CC50) at 24 h of 13.7 µM.

Take `N#CCN(CC#N)CCN(CC#N)CC#N` [(Ethylenedinitrilo)tetraacetonitrile]: the half-maximal cytotoxic concentration (CC50) at 24 h was greater than 90 µM.

In the case of `C[C]1([Mn](=[C]=O)(=[C]=O)=[C]=O)C=CC=C1` [(Methylcyclopentadienyl)tricarbonylmanganese], the CC50 at 24 h was greater than 90 µM.

Turning to `CSCc1cnccn1` [(Methylthio)methylpyrazine], the CC50 at 24 h is greater than 200 µM.

On to `CNc1ncnc2nc[nH]c12` [(N-6)-Methyladenine], for which the CC50 at 24 h is greater than 90 µM.

`Cc1cc(C)c(C(=O)P(=O)(C(=O)c2c(C)cc(C)cc2C)c2ccccc2)c(C)c1` [(Phenylphosphoryl)bis[(2,4,6-trimethylphenyl)methanone]] yielded a CC50 at 24 h greater than 90 µM.

For `C[C@@H](N)C(=O)c1ccccc1` [(R)-(+)-Cathinone hydrochloride], the CC50 at 24 h is greater than 100 µM.

In the case of `CCCC1([C@H](O)C/C=C/[C@H]2[C@H](O)CC(=O)[C@@H]2CCCCCCC(=O)OC)CCC1` [(R)-Butaprost], half-maximal cytotoxicity (CC50 at 24 h) was put at 32.9 µM.

`CC1=CC[C@H](C(C)C)C=C1` [(R)-alpha-Phellandrene]: the half-maximal cytotoxic concentration (CC50) at 24 h was greater than 90 µM.

In turn, `C[C@H](O)CN(C)C` [(S)-(+)-1-Dimethylamino-2-propanol] yielded a CC50 at 24 h greater than 50 µM.

The compound `COc1cc(C[C@H](C)N)c(OC)cc1C` [(S)-(+)-2,5-Dimethoxy-4-methylamphetamine hydrochloride] yielded a CC50 at 24 h greater than 100 µM.

The compound `C[C@@H](C1=C(CCN(C)C)Cc2ccccc21)c1ccccn1` [(S)-(+)-Dimethindene maleate] yielded a CC50 at 24 h of 42.1 µM.

`CCN[C@@H](C)Cc1ccccc1` [(S)-(+)-N-Ethylamphetamine hydrochloride] had a CC50 at 24 h greater than 100 µM.

For the compound `CC(C)=CCC[C@H](C)CCO` [(S)-(-)-beta-Citronellol], the CC50 at 24 h was greater than 90 µM.

Take `C=C[C@@H](C)CCC=C(C)C` [(S)-Citronellene]: the CC50 at 24 h is greater than 90 µM.

`CN[C@]1(c2ccccc2Cl)CCCCC1=O` [(S)-Ketamine] registered a CC50 at 24 h greater than 50 µM.

Regarding `C=C(C)[C@@H]1CC=C(C)CC1` [(S)-Limonene], the CC50 at 24 h is greater than 90 µM.

In turn, `CC[C@@]1(c2ccccc2)NC(=O)N(C)C1=O` [(S)-Mephenytoin] yielded a CC50 at 24 h greater than 50 µM.

Compound `CC(C)(C)NC[C@H](O)COc1nsnc1N1CCOCC1` [(S)-Timolol] returned a CC50 at 24 h greater than 50 µM.

Turning to `CC/C=C/CCCCCCCCC1CC(=O)OC1=O` (stereo not shown) [(Tetrapropenyl)succinic anhydride], the CC50 at 24 h was greater than 90 µM.

`CC/C=C\CCO` [(Z)-3-Hexen-1-ol] had a CC50 at 24 h greater than 90 µM.

Turning to `CCCCCCCC/C=C\CCCCCCCCN` [(Z)-9-Octadecenylamine], the CC50 at 24 h is greater than 50 µM.

In the case of `CCCC/C=C\CCCCCCCCCC=O` [(Z)-11-Hexadecenal], the CC50 at 24 h was greater than 90 µM.

Compound `CC/C=C\CCCCCCCCCCOC(C)=O` [(Z)-11-Tetradecenyl acetate] had a CC50 at 24 h greater than 90 µM.

`CCCCCC/C=C\CCCCCCCC(=O)O` [(Z)-Hexadec-9-enoic acid]: the CC50 at 24 h was greater than 90 µM.

Compound `CCC(=C(CC)c1ccc(O)cc1)c1ccc(O)cc1` [(Z,E)-Diethylstilbestrol] yielded a CC50 at 24 h of 12.2 µM.

The compound `CC1(C)[C@H](/C=C(\Cl)C(F)(F)F)[C@@H]1C(=O)O[C@@H](C#N)c1cccc(Oc2ccccc2)c1` [?-Cyhalothrin] displayed a CC50 at 24 h greater than 80 µM.

`CCN(CC)CC1CCCCN1CC(=O)N1c2ccccc2C(=O)Nc2cccnc21` (stereo not shown) [AF-DX 116] yielded a CC50 at 24 h greater than 50 µM.

In turn, `CC1(C)CCC(C)(C)c2cc(C(=O)Nc3ccc(C(=O)O)cc3)ccc21` [AM580] returned a CC50 at 24 h of 66.2 µM.

The compound `O=C1NCN(c2ccccc2)C12CCN(CCCOc1ccc(F)cc1)CC2` [AMI-193] gave a CC50 at 24 h of 14.1 µM.

Turning to `O=C(O)c1ccc2c(c1)nc(C(=O)NC1CCN(C3CC3)CC1)n2Cc1cc(-c2ccc(Cl)s2)on1` [AVE3247], the CC50 at 24 h is greater than 20 µM.

In turn, `CC[C@H](NC(=O)c1cc(F)ccc1NS(=O)(=O)c1cccc2cccnc12)c1ccccc1` [AVE3295] registered a CC50 at 24 h greater than 90 µM.

On to `NCc1cccc(C2CCN(C(=O)c3ccc(C#Cc4ccccc4F)o3)CC2)c1` [AVE5638], for which the CC50 at 24 h amounted to 6.44 µM.

The compound `CCOC(=O)O[C@H](C)OC(=O)c1ccc2c(c1)cc(C(=O)NC1CCN(C(C)C)CC1)n2Cc1cc(-c2ccc(Cl)s2)on1` [AVE6324] came in with a CC50 at 24 h of 4.58 µM.

`CN1CCN(Cc2cc(-c3ccc4[nH]c(=O)oc4c3)co2)[C@@H](c2ccc(F)cc2)C1` [AVE8488] came in with a CC50 at 24 h of 24.8 µM.

`CCCOc1sc(C(=O)N2CCC(c3cc(CN)ccc3F)CC2)c(C)c1Br` [AVE8923] showed a CC50 at 24 h of 3.52 µM.

Compound `O=C(O)c1ccccc1-n1cc(C(=O)O)c(=O)c2cc(Nc3c(F)cc(F)cc3Cl)c(Cl)cc21` [AVE9423] displayed a CC50 at 24 h greater than 90 µM.

Take `Nc1nc(NC2CC2)c2ncn([C@H]3C=C[C@@H](CO)C3)c2n1` [Abacavir]: the CC50 at 24 h is greater than 50 µM.

Take `CC(=O)O[C@H]1CC[C@@]2(C)C(=CC[C@@H]3[C@@H]2CC[C@]2(C)C(c4cccnc4)=CC[C@@H]32)C1` [Abiraterone acetate]: the CC50 at 24 h was greater than 50 µM.

For the compound `CC1=CC(=O)CC(C)(C)[C@@]1(O)/C=C/C(C)=C\C(=O)O` [Abscisic acid], the CC50 at 24 h was greater than 90 µM.

`NC(=O)c1ncn([C@@H]2O[C@H](CO)[C@@H](O)[C@H]2O)c1N` [Acadesine]: the CC50 at 24 h was greater than 50 µM.

For `CC(=O)NCCCS(=O)(=O)O` [Acamprosate calcium], the CC50 at 24 h was greater than 40 µM.

As to `C[C@H]1O[C@H](O[C@H]2[C@H](O)[C@@H](O)[C@@H](O[C@@H]([C@H](O)[C@@H](O)C=O)[C@H](O)CO)O[C@@H]2CO)[C@H](O)[C@@H](O)[C@@H]1N[C@H]1C=C(CO)[C@@H](O)[C@H](O)[C@H]1O` [Acarbose], the half-maximal cytotoxic concentration (CC50) at 24 h was greater than 50 µM.

Compound `CCCC(=O)Nc1ccc(OCC(O)CNC(C)C)c(C(C)=O)c1` (stereo not shown) [Acebutolol hydrochloride] had a CC50 at 24 h greater than 20 µM.

Compound `CCN(CC)CCNC(=O)c1ccc(NC(C)=O)cc1` [Acecainide hydrochloride] had a CC50 at 24 h greater than 50 µM.

In turn, `CC(=O)OC1CN2CCC1CC2` (stereo not shown) [Aceclidine] showed a CC50 at 24 h greater than 50 µM.

In the case of `O=C(O)COC(=O)Cc1ccccc1Nc1c(Cl)cccc1Cl` [Aceclofenac], the CC50 at 24 h was greater than 20 µM.

`CC(=O)O[C@@H]1C(=O)O[C@H]2[C@@H]1OC(=O)[C@@H]2OC(C)=O` [Aceglatone]: the CC50 at 24 h is greater than 50 µM.

In turn, `COc1ccc2c(c1)c(CC(=O)OCC(=O)O)c(C)n2C(=O)c1ccc(Cl)cc1` [Acemetacin] gave a CC50 at 24 h greater than 50 µM.

In the case of `c1cc2c3c(cccc3c1)CC2` [Acenaphthene], the CC50 at 24 h was greater than 90 µM.

For the compound `C1=Cc2cccc3cccc1c23` [Acenaphthylene], the CC50 at 24 h was greater than 90 µM.

Still in this series, the particulars now being: rat, gh3-tre-luc cells, AC50 (uM) modified / 1000, Tox21_110001=Tox21_112835; viability, 1 nM T3 present, 24 h.
As to `C[C@H]1[C@H]2Cc3ccc(O)cc3[C@]1(C)CCN2CCc1ccccc1` [(-)-Phenazocine hydrobromide], the CC50 at 24 h was 48.2 µM.

Still in this series, the particulars now being: rat, gh3-tre-luc cells, AC50 (uM) modified / 1000, Tox21_110001=Tox21_200003; viability, 1 nM T3 present, 24 h.
`Cl/C=C\Cl` [(Z)-1,2-Dichloroethylene] registered a CC50 at 24 h greater than 90 µM.

The series is the same for the next values; noted with them: rat, gh3-tre-luc cells, AC50 (uM) modified / 1000, Tox21_110001=Tox21_202419; viability, 1 nM T3 present, 24 h.
The compound `Cl/C=C/Cl` [(E)-1,2-Dichloroethylene] came in with a CC50 at 24 h greater than 90 µM.

Still in this series, the particulars now being: rat, gh3-tre-luc cells, AC50 (uM) modified / 1000, Tox21_110001=Tox21_202829; viability, 1 nM T3 present, 24 h.
Take `CC[C@H](N)c1ccccc1` [(S)-(-)-1-Amino-1-phenylpropane]: the 50% cytotoxic concentration (CC50) at 24 h is greater than 90 µM.

Staying with this series, now noted: rat, gh3-tre-luc cells, AC50 (uM) modified / 1000, Tox21_110001=Tox21_202896; viability, 1 nM T3 present, 24 h.
In turn, `O=C/C=C/c1ccco1` [(E)-3-(2-Furyl)acrolein] returned a CC50 at 24 h greater than 90 µM.

Still in this series, the particulars now being: rat, gh3-tre-luc cells, AC50 (uM) modified / 1000, Tox21_110001=Tox21_202947; viability, 1 nM T3 present, 24 h.
Take `O=C1C(=O)c2cccc3cccc1c23` [Acenaphthenequinone]: the CC50 at 24 h is greater than 90 µM.

Still in this series, the particulars now being: rat, gh3-tre-luc cells, AC50 (uM) modified / 1000, Tox21_110001=Tox21_300253; viability, 1 nM T3 present, 24 h.
With `O=C(NC(=O)c1cc(F)c(F)cc1Cl)Nc1cc(F)ccc1N1CCC(C(=O)O)CC1` [AVE2865], the CC50 at 24 h was greater than 50 µM.
